Results from patent publication US8192962B2, “Processes for detecting toxic substances” (Daikin Industries, Ltd., priority 2001, dated 2012).

System: DNA repair protein genes
Test: DNA chip mRNA expression in yeast, DNA repair protein genes (Table 3)
Assay type: cell-based, Saccharomyces cerevisiae S288C
Conditions: incubated two hours, concentrations as in the 1st table
How it was run: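 Expression change after 2 h toxicant exposure (growth-inhibiting, sub-lethal) of log-phase S. cerevisiae S288C at 25° C. Oligo-dT-purified mRNA was labeled with Cy3-dUTP or Cy5-dUTP and hybridized >12 h at 65° C. to a genome-wide chip; ratio of scanned fluorescence to control.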

## manganese ethylenebis(dithiocarbamate) [(8)]
Yeast gene YAL015C
  The level of expressed mRNA in the presence of chemical substance/The level of expressed mRNA in the absence of chemical substance: 1.1
Yeast gene YAR007C
  The level of expressed mRNA in the presence of chemical substance/The level of expressed mRNA in the absence of chemical substance: 1.1
Yeast gene YBL019W
  The level of expressed mRNA in the presence of chemical substance/The level of expressed mRNA in the absence of chemical substance: 1.2
Yeast gene YBR073W
  The level of expressed mRNA in the presence of chemical substance/The level of expressed mRNA in the absence of chemical substance: 1.1
Yeast gene YBR272C
  The level of expressed mRNA in the presence of chemical substance/The level of expressed mRNA in the absence of chemical substance: 1.1
Yeast gene YCR014C
  The level of expressed mRNA in the presence of chemical substance/The level of expressed mRNA in the absence of chemical substance: 1.0
Yeast gene YDL017W
  The level of expressed mRNA in the presence of chemical substance/The level of expressed mRNA in the absence of chemical substance: 1.2
Yeast gene YDL059C
  The level of expressed mRNA in the presence of chemical substance/The level of expressed mRNA in the absence of chemical substance: 1.2
Yeast gene YDL200C
  The level of expressed mRNA in the presence of chemical substance/The level of expressed mRNA in the absence of chemical substance: 1.5
Yeast gene YDR054C
  The level of expressed mRNA in the presence of chemical substance/The level of expressed mRNA in the absence of chemical substance: 1.5
Yeast gene YDR369C
  The level of expressed mRNA in the presence of chemical substance/The level of expressed mRNA in the absence of chemical substance: 1.0
Yeast gene YEL019C
  The level of expressed mRNA in the presence of chemical substance/The level of expressed mRNA in the absence of chemical substance: 0.9
Yeast gene YEL037C
  The level of expressed mRNA in the presence of chemical substance/The level of expressed mRNA in the absence of chemical substance: 0.8
Yeast gene YER162C
  The level of expressed mRNA in the presence of chemical substance/The level of expressed mRNA in the absence of chemical substance: 0.9
Yeast gene YFL014W
  The level of expressed mRNA in the presence of chemical substance/The level of expressed mRNA in the absence of chemical substance: 3.4
Yeast gene YGL058W
  The level of expressed mRNA in the presence of chemical substance/The level of expressed mRNA in the absence of chemical substance: 1.3
Yeast gene YGL091C
  The level of expressed mRNA in the presence of chemical substance/The level of expressed mRNA in the absence of chemical substance: 1.8
Yeast gene YGL127C
  The level of expressed mRNA in the presence of chemical substance/The level of expressed mRNA in the absence of chemical substance: 0.9
Yeast gene YGL163C
  The level of expressed mRNA in the presence of chemical substance/The level of expressed mRNA in the absence of chemical substance: 1.4
Yeast gene YGL249W
  The level of expressed mRNA in the presence of chemical substance/The level of expressed mRNA in the absence of chemical substance: 0.9
Yeast gene YGR180C
  The level of expressed mRNA in the presence of chemical substance/The level of expressed mRNA in the absence of chemical substance: 1.0
Yeast gene YGR231C
  The level of expressed mRNA in the presence of chemical substance/The level of expressed mRNA in the absence of chemical substance: 1.1
Yeast gene YGR258C
  The level of expressed mRNA in the presence of chemical substance/The level of expressed mRNA in the absence of chemical substance: 0.8
Yeast gene YHR164C
  The level of expressed mRNA in the presence of chemical substance/The level of expressed mRNA in the absence of chemical substance: 1.1
Yeast gene YIL036W
  The level of expressed mRNA in the presence of chemical substance/The level of expressed mRNA in the absence of chemical substance: 1.1
Yeast gene YIL072W
  The level of expressed mRNA in the presence of chemical substance/The level of expressed mRNA in the absence of chemical substance: 1.4
Yeast gene YIL143C
  The level of expressed mRNA in the presence of chemical substance/The level of expressed mRNA in the absence of chemical substance: 0.9
Yeast gene YIL153W
  The level of expressed mRNA in the presence of chemical substance/The level of expressed mRNA in the absence of chemical substance: 0.5
Yeast gene YIR002C
  The level of expressed mRNA in the presence of chemical substance/The level of expressed mRNA in the absence of chemical substance: 1.2
Yeast gene YJL026W
  The level of expressed mRNA in the presence of chemical substance/The level of expressed mRNA in the absence of chemical substance: 1.2
Yeast gene YJR046W
  The level of expressed mRNA in the presence of chemical substance/The level of expressed mRNA in the absence of chemical substance: 0.9
Yeast gene YJR052W
  The level of expressed mRNA in the presence of chemical substance/The level of expressed mRNA in the absence of chemical substance: 1.7
Yeast gene YKL145W
  The level of expressed mRNA in the presence of chemical substance/The level of expressed mRNA in the absence of chemical substance: 1.5
Yeast gene YLR103C
  The level of expressed mRNA in the presence of chemical substance/The level of expressed mRNA in the absence of chemical substance: 1.4
Yeast gene YLR233C
  The level of expressed mRNA in the presence of chemical substance/The level of expressed mRNA in the absence of chemical substance: 1.1
Yeast gene YLR288C
  The level of expressed mRNA in the presence of chemical substance/The level of expressed mRNA in the absence of chemical substance: 1.5
Yeast gene YML032C
  The level of expressed mRNA in the presence of chemical substance/The level of expressed mRNA in the absence of chemical substance: 0.9
Yeast gene YML058W
  The level of expressed mRNA in the presence of chemical substance/The level of expressed mRNA in the absence of chemical substance: 0.7
Yeast gene YMR035W
  The level of expressed mRNA in the presence of chemical substance/The level of expressed mRNA in the absence of chemical substance: 1.4
Yeast gene YMR072W
  The level of expressed mRNA in the presence of chemical substance/The level of expressed mRNA in the absence of chemical substance: 1.0
Yeast gene YMR096W
  The level of expressed mRNA in the presence of chemical substance/The level of expressed mRNA in the absence of chemical substance: 2.0
Yeast gene YMR284W
  The level of expressed mRNA in the presence of chemical substance/The level of expressed mRNA in the absence of chemical substance: 1.1
Yeast gene YNL213C
  The level of expressed mRNA in the presence of chemical substance/The level of expressed mRNA in the absence of chemical substance: 1.8
Yeast gene YNL250W
  The level of expressed mRNA in the presence of chemical substance/The level of expressed mRNA in the absence of chemical substance: 1.3
Yeast gene YNL261W
  The level of expressed mRNA in the presence of chemical substance/The level of expressed mRNA in the absence of chemical substance: 1.1
Yeast gene YNL312W
  The level of expressed mRNA in the presence of chemical substance/The level of expressed mRNA in the absence of chemical substance: 1.2
Yeast gene YOL043C
  The level of expressed mRNA in the presence of chemical substance/The level of expressed mRNA in the absence of chemical substance: 0.9
Yeast gene YOR005C
  The level of expressed mRNA in the presence of chemical substance/The level of expressed mRNA in the absence of chemical substance: 1.3
Yeast gene YOR386W
  The level of expressed mRNA in the presence of chemical substance/The level of expressed mRNA in the absence of chemical substance: 1.0
Yeast gene YPL022W
  The level of expressed mRNA in the presence of chemical substance/The level of expressed mRNA in the absence of chemical substance: 1.0
Yeast gene YPL164C
  The level of expressed mRNA in the presence of chemical substance/The level of expressed mRNA in the absence of chemical substance: 1.0
Yeast gene YPL194W
  The level of expressed mRNA in the presence of chemical substance/The level of expressed mRNA in the absence of chemical substance: 1.3
Yeast gene YPR025C
  The level of expressed mRNA in the presence of chemical substance/The level of expressed mRNA in the absence of chemical substance: 1.3
